Data from PubChem BioAssay (NCI).
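Abbreviation: GI50, concentration required for 50% inhibition of growth. TGI: concentration producing complete growth inhibition.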

Experiments:
Experiment in all cases: growth of human tumour cells (NCI), 384-well format
[1] = system: SF-268 CNS
[2] = system: IGROV1 ovarian
[3] = system: HOP-62 NSCLC
[4] = system: CCRF-CEM leukemia
[5] = system: SW-620 colon
[6] = system: HOP-92 NSCLC
[7] = system: SK-OV-3 ovarian
[8] = system: NCI/ADR-RES ovarian
[9] = system: K-562 leukemia
[10] = system: NCI-H322M lung
[11] = system: NCI-H460 NSCLC
[12] = system: MOLT-4 leukemia
[13] = system: M14 melanoma
[14] = system: HCT-116 colon
[15] = system: T-47D breast
[16] = system: SN12C renal
[17] = system: LOX IMVI melanoma
[18] = system: UACC-257 melanoma
[19] = system: OVCAR-8 ovarian
[20] = system: NCI-H226 lung
[21] = system: MDA-MB-468 breast
[22] = system: HS 578T breast
[23] = system: COLO 205 colon
[24] = system: HL-60(TB) leukemia
[25] = system: UO-31 renal
[26] = system: PC-3 prostate
[27] = system: A549 NSCLC
[28] = system: MDA-MB-435 melanoma
[29] = system: RXF 393 renal
[30] = system: NCI-H23 lung
[31] = system: SK-MEL-5 melanoma
[32] = system: TK-10 renal
[33] = system: NCI-H522 lung
[34] = system: KM12 colon
[35] = system: RPMI-8226 leukemia
[36] = system: OVCAR-4 ovarian
[37] = system: SNB-19 CNS
[38] = system: UACC-62 melanoma
[39] = system: SNB-75 CNS
[40] = system: BT-549 breast
[41] = system: DU-145 prostate
[42] = system: HCC-2998 colon
[43] = system: HT29 colon
[44] = system: OVCAR-3 ovarian
[45] = system: HCT-15 colon
[46] = system: SK-MEL-28 melanoma
[47] = system: A498 renal
[48] = system: SF-295 CNS
[49] = system: U251 glioblastoma
[50] = system: 786-0 renal
[51] = system: SF-539 CNS
[52] = system: MCF7 breast
[53] = system: CAKI-1 renal
[54] = system: MALME-3M melanoma
[55] = system: ACHN renal
[56] = system: MDA-MB-231 breast
[57] = system: EKVX NSCLC

For `Cn1ncc(C#N)c1-c1ccc2c(c1)CN([C@H](CN)Cc1cccc(F)c1)C2=O`, the GI50 [1] was 19.2 µM, the TGI [1] was 58.5 µM and the GI50 [2] was 55.2 nM. The TGI [2] was 10.4 µM, the GI50 [3] was 23 µM and the TGI [3] was 71.1 µM. For the same molecule, the GI50 [4] was 675 nM, the TGI [4] was 14.6 µM and the GI50 [5] was 27.5 µM. For the same molecule, the TGI [5] was 82 µM, the GI50 [6] was 6.45 µM and the TGI [6] was 31.4 µM. It also gave a GI50 [7] of 534 nM, a TGI [7] of 23.2 µM and a GI50 [8] of over 100 µM. The TGI [8] was over 100 µM, the GI50 [9] was 15.3 µM and the TGI [9] was 43.7 µM. For the same molecule, the GI50 [10] was 16.9 µM, the TGI [10] was 70.2 µM and the GI50 [11] was 582 nM. It also gave a TGI [11] of 33.3 µM, a GI50 [12] of 129 nM and a TGI [12] of 2380 nM. For the same molecule, the GI50 [13] was 11.2 µM, the TGI [13] was 26.8 µM and the GI50 [14] was 10.8 µM. For the same molecule, the TGI [14] was 23.2 µM, the GI50 [15] was 50.2 nM and the TGI [15] was 19.5 µM. The GI50 [16] was 17.6 µM, the TGI [16] was 65.9 µM and the GI50 [17] was 27.6 µM. For the same molecule, the TGI [17] was over 100 µM, the GI50 [18] was 12.5 µM and the TGI [18] was 31.1 µM. It also gave a GI50 [19] of 24.3 µM, a TGI [19] of over 100 µM and a GI50 [20] of 14.4 µM. For the same molecule, the TGI [20] was 39.1 µM, the GI50 [21] was 96.7 nM and the TGI [21] was 3.28 µM. It also gave a GI50 [22] of 1570 nM, a TGI [22] of 19.8 µM and a GI50 [23] of 4.91 µM. The TGI [23] was 25.4 µM, the GI50 [24] was 15.9 µM and the TGI [24] was 29.5 µM. It also gave a GI50 [25] of 13.4 µM, a TGI [25] of 46.7 µM and a GI50 [26] of 436 nM. The TGI [26] was 16.7 µM, the GI50 [27] was 12.2 µM and the TGI [27] was 75.1 µM. For the same molecule, the GI50 [28] was 15.8 µM, the TGI [28] was 43.3 µM and the GI50 [29] was 433 nM. The TGI [29] was 11.9 µM, the GI50 [30] was 14.6 µM and the TGI [30] was 34.8 µM. For the same molecule, the GI50 [31] was 6.5 µM, the TGI [31] was 20 µM and the GI50 [32] was 10.1 µM. It also gave a TGI [32] of 42.8 µM, a GI50 [33] of 13.3 µM and a TGI [33] of 27 µM. It also gave a GI50 [34] of 841 nM, a TGI [34] of 20.4 µM and a GI50 [35] of 12.9 µM. For the same molecule, the TGI [35] was 26.1 µM, the GI50 [36] was 35.7 µM and the TGI [36] was over 100 µM. The GI50 [37] was 13.7 µM, the TGI [37] was 67.3 µM and the GI50 [38] was 4.27 µM. The TGI [38] was 19.8 µM, the GI50 [39] was 299 nM and the TGI [39] was 14 µM. It also gave a GI50 [40] of 943 nM, a TGI [40] of 17.9 µM and a GI50 [41] of 16.5 µM. The TGI [41] was 44.9 µM, the GI50 [42] was 11 µM and the TGI [42] was 47.2 µM. It also gave a GI50 [43] of 4.87 µM, a TGI [43] of 94.5 µM and a GI50 [44] of 11.8 µM. The TGI [44] was 32.4 µM, the GI50 [45] was 16.3 µM and the TGI [45] was over 100 µM. The GI50 [46] was 3.34 µM, the TGI [46] was 33.4 µM and the GI50 [47] was 269 nM. The TGI [47] was 16.7 µM, the GI50 [48] was 668 nM and the TGI [48] was 16.5 µM. The GI50 [49] was 11.1 µM, the TGI [49] was 68.7 µM and the GI50 [50] was 324 nM. The TGI [50] was 21.2 µM, the GI50 [51] was 394 nM and the TGI [51] was 33.4 µM. The GI50 [52] was 498 nM, the TGI [52] was 16.3 µM and the GI50 [53] was 5.91 µM. The TGI [53] was 40.8 µM, the GI50 [54] was 1760 nM and the TGI [54] was 14.8 µM. It also gave a GI50 [55] of 17.3 µM, a TGI [55] of 93.9 µM and a GI50 [56] of 21.8 µM. For the same molecule, the TGI [56] was 74.7 µM, the GI50 [57] was 11.1 µM and the TGI [57] was 40.3 µM.
